Square brackets hold non-standard residues; d marks the D form. Peptide text beside a SMILES is read from it. * marks the point of attachment. Dolaproine = CO[C@@H]([C@@H]1CCCN1)[C@@H](C)C(=O)O; Dil = CC[C@H](C)[C@H](NC)[C@@H](CC(=O)O)OC; X1 = C[C@@H](N*)[C@@H](O)c1ccccc1; NMeV = CN[C@H](C(=O)O)C(C)C
Key:
[1] = tested on: MDA-MB-231; test: In vitro cytotoxicity (CellTiter Glo); format: cell-based; details: Homo sapiens, hypoxic conditions (0.1% O2), HER2-, read-out: EC50 (cell proliferation inhibitory activity)
Description: (§1) The test procedure was shown as follows: • 1. Thawing Cell • Cryopreserved target cells was thawed by gentle agitation of the cryovial in a 37 °C water bath; • after thawing, the cryovial was removed from the water bath and decontaminated by spraying or immersing in 70% ethanol; • the cells in the cryovial were transferred into a centrifuge tube containing 9 mL of complete DMEM culture medium, followed by centrifugation at 200 g for 5 min; • the cells were resuspended with culture medium, and precipitated and seeded into a 75 cm^2 culture flask; • the cells were cultured in a Galaxy® CO2 incubator (48R, #CO48312044) under standard culture conditions of 37 °C, 20% oxygen and 5% carbon dioxide. • 2. Spreading Cell • Cells were subcultured three times per week at a ratio of 1:4 in a culture medium supplemented with 10% FBS (heat inactivated) and a 1% Penicillin-Streptomycin solution; • for cell passaging, adherent cells were first rinsed with 3 mL of trypsin/EDTA solution (3 mL). Then, 3 mL of trypsin/EDTA solution was added to the T75 culture flask, and the flask was gently rotated to ensure uniform coverage of the cell. The cells were incubated at 37 °C until complete cell detachment was achieved. Cell detachment was verified under a microscope, then an equal volume of the cell culture medium was added to inactivate the trypsin, and the separated cells were collected, centrifuged at 200 g for 5 minutes, and then re-suspended in a fresh culture medium. • 3. Inoculating cell • The cells were collected and counted; • 100 µ L of a cell suspension with adjusted density were inoculated to a 96-well cell culture plate, and the final cell density was about from 5000 cells/well to 10000 cells/well; • The culture plate was covered and incubated in a 5% CO2 incubator with 20% oxygen at 37 °C for 24 h. • 4. […] Co-incubation of cells with test compounds The culture medium in the 96 wells plate inoculated with cells was discarded, 150 µL of fresh culture medium was added to each well, and then 50 µL of the prepared test compounds were added to the 96-well plate. After the cells were co-incubated with the compounds in an incubator under conditions of 37 °C, 5% CO2, and 0.1% O2 for 24 h. After incubation, the drug-containing medium was removed, and the cells were rinsed with a fresh culture medium. Then the cells were placed in an incubator at 37 °C, 5% CO2, and 20% O2 and continuously cultured for an additional 72 h or 120 h. • 6. Reading plate • The plate was taken out of the incubator and equilibrated for 15 minutes at room temperature; • prior to the experiment, the CellTiter Glo reagent was incubated at 37 °C; • The detection solution was prepared by diluting CellTiter-Glo reagent with PBS at a volume ratio of 3:7, and the diluted solution was added into the wells to be tested; • the plate was then shaken at room temperature for 8 min, and allowed to stand for 2 min, and then signals were detected using an EnSpire reader. • 7.

[2] = tested on: NCI-N87; test: In vitro cytotoxicity (CellTiter Glo); format: cell-based; details: Homo sapiens, hypoxic conditions (0.1% O2), HER2+, read-out: EC50 (cell proliferation inhibitory activity)
Description: as §1

[3] = tested on: BT-474; test: In vitro cytotoxicity (CellTiter Glo); format: cell-based; details: Homo sapiens, BT-474, read-out: EC50 (cell proliferation inhibitory activity)
Description: as §1

[4] = tested on: SKBR3; test: In vitro cytotoxicity (CellTiter Glo); format: cell-based; details: Homo sapiens, SK-BR-3, read-out: EC50 (cell proliferation inhibitory activity)
Description: as §1

[5] = tested on: MCF-7; test: In vitro cytotoxicity (CellTiter Glo); format: cell-based; details: Homo sapiens, MCF7; hypoxic conditions (0.1% O2), HER2-; read-out: EC50 (cell proliferation inhibitory activity)
Description: as §1

[6] = Distribution and metabolism in blood, tissues and tumour; format: in vivo, mice; details: for area under the drug-time curve as share of that in tumors: after compound III-2 25 mg/kg
Description: The present example evaluated distribution and metabolism of compound III-2. SKOV3 ovarian cancer tumor-bearing mice were randomly divided into 6 groups. After tail vein injection with a single dose of compound III-2 (25 mg/kg), the mice were euthanized at the predetermined time points of 6 h, 24h, 72 h, 96 h, 168 h, 192 h in order, and blood, heart, liver, spleen, lung, and tumor samples were collected. The blood and tissue samples were stored at -80 °C for further analysis. […] At 96 h after the administration, Cys-II-2 was hardly detected in heart, liver, spleen, and lung. The peak concentration and area under the curve of the cytotoxin MMAE in the tumor were 293 times and 941 times those in peripheral blood, respectively, further proving that the excellent targeting capability of compound III-2. The area under the drug-time curve of MMAE in heart, liver, spleen and lung were 11%, 47%, 5% and 7% of area under the drug-time curve in tumors, respectively. […] Table 5 Concentration of Cys-II-2 in each group

[7] = tested on: Staphylococcus aureus USA300; test: Antibacterial activity against free bacteria (OD600nm); format: cell-based; details: free USA300, 37 °C, 16 h to 18h
Description: The present example evaluated the antibacterial efficacy of compound III-16 against free Staphylococcus aureus. 5 µL to 10 µL of a Staphylococcus aureus USA300 stock suspension stored at - 80 °C was taken and streaked on Brain Heart Infusion solid culture plates and incubated overnight at 37 °C in a biochemical incubator. A single USA300 colony was picked from the solid culture plates, inoculated into an appropriate volume of Brain Heart Infusion medium, and activated for 16 h to 18 h in a bacteria shaking incubator, then the bacterial suspension was centrifuged for 5 min at a rotating speed of 4000 rpm to collect the bacteria. The bacteria were resuspended in 1×PBS and the bacterial density was diluted to about […]. The diluted bacterial suspension was added to 96-well plates at 100 µL per well. Serially diluted compound III-16 and rifalogue were added to the bacterial suspension in the 96-well plates, and the bacteria was cultured in a biochemical incubator at 37 °C for 16 h to 18h, then the OD600nm was detected using a microplate reader. […] Without being limited by theories, it is speculated that the activity of compound III-16 against free bacteria may be stemed from the cleavage of the linker in compound III-16 by azoreductase extracellularly secreted by the bacteria, which releases rifalogue to exert antibacterial effect.

[8] = after compound III-2 25 mg/kg single tail vein injection

## CC[C@H](C)[C@@H]([C@@H](CC(=O)N1CCC[C@H]1[C@H](OC)[C@@H](C)C(=O)N[C@H](C)[C@@H](O)c1ccccc1)OC)N(C)C(=O)[C@@H](NC(=O)[C@@H](NC)C(C)C)C(C)C [MMAE] (H-[NMeV]V[Dil][Dolaproine]-X1)
[1]
  EC50: 0.57 nM
[2]
  EC50: 0.24 nM
[3]
  EC50: 0.032 nM
[4]
  EC50: 0.058 nM
[5]
  EC50: 0.015 nM
[6]; Blood, 6 h, after compound III-2 25 mg/kg single tail vein injection
  Concentration of MMAE: 1.54 ng/g or ng/mL
[6]; Blood, 24 h, after compound III-2 25 mg/kg single tail vein injection
  Concentration of MMAE: 0.51 ng/g or ng/mL
[6]; Blood, 72 h, after compound III-2 25 mg/kg single tail vein injection
  Concentration of MMAE: 0.23 ng/g or ng/mL
[6]; Blood, 96 h, after compound III-2 25 mg/kg single tail vein injection
  Concentration of MMAE: 0.12 ng/g or ng/mL
[6]; Blood, 168 h, after compound III-2 25 mg/kg single tail vein injection
  Concentration of MMAE: 0.10 ng/g or ng/mL
[6]; Blood, 192 h, after compound III-2 25 mg/kg single tail vein injection
  Concentration of MMAE: BQL
[6]; Heart, 6 h, after compound III-2 25 mg/kg single tail vein injection
  Concentration of MMAE: 112.72 ng/g or ng/mL
[6]; Heart, 24 h, after compound III-2 25 mg/kg single tail vein injection
  Concentration of MMAE: 71.97 ng/g or ng/mL
[6]; Heart, 72 h, after compound III-2 25 mg/kg single tail vein injection
  Concentration of MMAE: 32.46 ng/g or ng/mL
[6]; Heart, 96 h, after compound III-2 25 mg/kg single tail vein injection
  Concentration of MMAE: 17.99 ng/g or ng/mL
[6]; Heart, 168 h, after compound III-2 25 mg/kg single tail vein injection
  Concentration of MMAE: 2.70 ng/g or ng/mL
[6]; Heart, 192 h, after compound III-2 25 mg/kg single tail vein injection
  Concentration of MMAE: 0.80 ng/g or ng/mL
[6]; Liver, 6 h, after compound III-2 25 mg/kg single tail vein injection
  Concentration of MMAE: 348.31 ng/g or ng/mL
[6]; Liver, 24 h, after compound III-2 25 mg/kg single tail vein injection
  Concentration of MMAE: 269.21 ng/g or ng/mL
[6]; Liver, 72 h, after compound III-2 25 mg/kg single tail vein injection
  Concentration of MMAE: 115.44 ng/g or ng/mL
[6]; Liver, 96 h, after compound III-2 25 mg/kg single tail vein injection
  Concentration of MMAE: 101.72 ng/g or ng/mL
[6]; Liver, 168 h, after compound III-2 25 mg/kg single tail vein injection
  Concentration of MMAE: 26.86 ng/g or ng/mL
[6]; Liver, 192 h, after compound III-2 25 mg/kg single tail vein injection
  Concentration of MMAE: 10.07 ng/g or ng/mL
[6]; Lung, 6 h, after compound III-2 25 mg/kg single tail vein injection
  Concentration of MMAE: 22.96 ng/g or ng/mL
[6]; Lung, 24 h, after compound III-2 25 mg/kg single tail vein injection
  Concentration of MMAE: 12.85 ng/g or ng/mL
[6]; Lung, 72 h, after compound III-2 25 mg/kg single tail vein injection
  Concentration of MMAE: 19.79 ng/g or ng/mL
[6]; Lung, 96 h, after compound III-2 25 mg/kg single tail vein injection
  Concentration of MMAE: 43.95 ng/g or ng/mL
[6]; Lung, 168 h, after compound III-2 25 mg/kg single tail vein injection
  Concentration of MMAE: 1.93 ng/g or ng/mL
[6]; Lung, 192 h, after compound III-2 25 mg/kg single tail vein injection
  Concentration of MMAE: 1.04 ng/g or ng/mL
[6]; Spleen, 6 h, after compound III-2 25 mg/kg single tail vein injection
  Concentration of MMAE: 21.29 ng/g or ng/mL
[6]; Spleen, 24 h, after compound III-2 25 mg/kg single tail vein injection
  Concentration of MMAE: 19.80 ng/g or ng/mL
[6]; Spleen, 72 h, after compound III-2 25 mg/kg single tail vein injection
  Concentration of MMAE: 20.24 ng/g or ng/mL
[6]; Spleen, 96 h, after compound III-2 25 mg/kg single tail vein injection
  Concentration of MMAE: 13.60 ng/g or ng/mL
[6]; Spleen, 168 h, after compound III-2 25 mg/kg single tail vein injection
  Concentration of MMAE: 3.82 ng/g or ng/mL
[6]; Spleen, 192 h, after compound III-2 25 mg/kg single tail vein injection
  Concentration of MMAE: 1.40 ng/g or ng/mL
[6]; Tumour, 6 h, after compound III-2 25 mg/kg single tail vein injection
  Concentration of MMAE: 54.24 ng/g or ng/mL
[6]; Tumour, 24 h, after compound III-2 25 mg/kg single tail vein injection
  Concentration of MMAE: 179.62 ng/g or ng/mL
[6]; Tumour, 72 h, after compound III-2 25 mg/kg single tail vein injection
  Concentration of MMAE: 292.45 ng/g or ng/mL
[6]; Tumour, 96 h, after compound III-2 25 mg/kg single tail vein injection
  Concentration of MMAE: 451.68 ng/g or ng/mL
[6]; Tumour, 168 h, after compound III-2 25 mg/kg single tail vein injection
  Concentration of MMAE: 198.90 ng/g or ng/mL
[6]; Tumour, 192 h, after compound III-2 25 mg/kg single tail vein injection
  Concentration of MMAE: 125.44 ng/g or ng/mL
[6]; [8]
  area under the curve in the tumor relative to peripheral blood: 941 times
  peak concentration in the tumor relative to peripheral blood: 293 times
[6]; heart
  area under the drug-time curve as share of that in tumors: 11%
[6]; liver
  area under the drug-time curve as share of that in tumors: 47%
[6]; lung
  area under the drug-time curve as share of that in tumors: 7%
[6]; spleen
  area under the drug-time curve as share of that in tumors: 5%

## CO[C@H]1C=CO[C@@]2(C)Oc3c(C)c(O)c4c(=O)c(c5oc6cc(N7CCC(N(C)C)CC7)cc(=O)c6nc5c4c3=C2O)NC(=O)/C(C)=C\C=C/[C@H](C)[C@H](O)[C@@H](C)[C@@H](O)[C@@H](C)[C@H](OC(C)=O)[C@@H]1C [rifalogue]
[7]
  MIC90: about 1.4 nM

Source: patent EP4818155A1, “AZOBENZENE-[…], PROTEIN-COUPLED DRUG […], AND PHARMACEUTICAL USE THEREOF” (priority 2023, dated 2025)
